Source: patent US4396550A, “Dibenz [b,e] oxepin derivatives” (Kyowa Hakko Kogyo Co., Ltd., priority 1980, dated 1983)

Legend:
[1] = system: isolated ileum of guinea-pig; experiment: Test for anticholinergic effects on the isolated ileum of guinea-pig (acetylcholine contraction, in vitro); design: species or system guinea-pig (male Hartly-strain); conditions: Cavia porcellus, 0.05 h; depressing ratio of 80% or more of acetylcholine contraction; compound 3 minutes before; read-out: Anticholinergic activity: MED (minimum effective dose)
In short: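 Ileum segments from male Hartley guinea-pigs (~250 g), 2-3 cm, in Tyrode's at 32±1° C, aerated. Contraction evoked by acetylcholine (0.1 ml of 10^-3 g/ml), recorded by kymograph, before and 3 minutes after test compound addition.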

male dd-strain rats = experiment: Acute toxicity test (minimum lethal dose); format: in vivo; conditions: mortality for 7 days
Procedure: Groups of male dd-strain rats (each group consisting of five rats) weighing 20±1 g were used. The compounds of the present invention were administered orally (po: 0.3 mg/g) or intraperitoneally (ip: 0.1 mg/g). The MLD (minimum lethal dose) was calculated from the mortality for 7 days after the administration to obtain the results given in Table 1.

[2] = system: isolated ileum of guinea-pig; experiment: Test for antihistaminergic effects on the isolated ileum of guinea-pig (histamine contraction, in vitro); design: species or system guinea-pig (male Hartly-strain); conditions: Cavia porcellus, 0.05 h; depressing ratio of 80% or more of histamine contraction; read-out: Antihistaminergic activity: MED
In short: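 Ileum segments from male Hartley guinea-pigs (~250 g) suspended in Tyrode's solution at 32±1 °C, contractions recorded on kymograph. Test compound given 3 min before agonist challenge with 0.1 ml histamine at 5×10^-3 g/l.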

[3] = system: blood platelets (platelet-rich plasma); experiment: Test for the inhibition of platelet aggregation (collagen-induced, platelet-rich plasma); format: cell-based, male white rabbits; conditions: Oryctolagus cuniculus, Platelet, 0.05 h; depressing ratio of 50% of collagen-induced aggregation; compound 3 minutes before; read-out: Antiplatelet aggregation activity: MED
In short: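 Citrated carotid blood from male white rabbits (2–2.5 kg) spun at 1,000 rpm for 15 min to give PRP. Compound added 3 min before collagen, dosed to give 50% aggregation in the presence of 100 γ/ml aspirin; aggregation followed by aggregometer, activity scored as 50% depression versus collagen alone.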

Antiasthmatic activity = format: in vivo; conditions: po; read-out: Antiasthmatic activity: MED

Row | SMILES | minimal effective concentration [1] [µg/mL] | Acute toxicity: MLD (minimum lethal dose) (male dd-strain rats; ip) [mg/kg] | Acute toxicity: MLD (minimum lethal dose) (male dd-strain rats; po) [mg/kg] | minimal effective concentration [2] [µg/mL] | minimal effective concentration [3] [µg/mL] | minimal effective dose (Antiasthmatic activity) [mg/kg]
1 | Cc1ccc2c(c1)C(NCCN(C)C)c1ccccc1CO2 (stereo not drawn) [Compound 16, 2-methyl-11-{2-(dimethylamino)ethyl}amino-6,11-dihydrodibenz[b,e]oxepin] | 3 | > 100 | 300 | 10 | 50 | 25
2 | COc1ccc2c(c1)C(NC1CN3CCC1CC3)c1ccccc1CO2 (stereo not drawn) [Compound 24, 2-methoxy-11-(3-quinuclidinyl)amino-6,11-dihydrodibenz[b,e]oxepin] | 0.3 | 100 | 200 | 0.1 | 100 | 50
3 | CCc1ccc2c(c1)C(NCCN(C)C)c1ccccc1CO2 (stereo not drawn) [Compound 17, 2-ethyl-11-{2-(dimethylamino)ethyl}amino-6,11-dihydrodibenz[b,e]oxepin] | 0.01 | > 100 | 300 | 0.3 | 50 | 10
4 | Fc1ccc2c(c1)C(NC1CN3CCC1CC3)c1ccccc1CO2 (stereo not drawn) [Compound 22, 2-fluoro-11-(3-quinuclidinyl)amino-6,11-dihydrodibenz[b,e]oxepin] | 0.3 | 100 | 300 | 0.3 | 100 | 50
5 | Clc1ccc2c(c1)C(NC1CN3CCC1CC3)c1ccccc1CO2 (stereo not drawn) [Compound 23, 2-chloro-11-(3-quinuclidinyl)amino-6,11-dihydrodibenz[b,e]oxepin] | 1 | 100 | 300 | 0.3 | 100 | 50
6 | CCc1ccc2c(c1)C(N1CCN(C)CC1)c1ccccc1CO2 (stereo not drawn) [Compound 66, 2-ethyl-11-(4-methyl-1-piperazinyl)-6,11-dihydrodibenz[b,e]oxepin] | 10 | > 100 | > 300 | 1 | 50 | 10
7 | CN(C)CCNC1c2ccccc2COc2ccc(F)cc21 (stereo not drawn) [Compound 18, 2-fluoro-11-{2-(dimethylamino)ethyl}amino-6,11-dihydrodibenz[b,e]oxepin] | 0.3 | > 100 | > 300 | 0.3 | 50 | 10
8 | CN1CCN(C2c3ccccc3COc3ccc(F)cc32)CC1 (stereo not drawn) [Compound 69, 2-fluoro-11-(4-methyl-1-piperazinyl)-6,11-dihydrodibenz[b,e]oxepin] | 3 | > 100 | 100 | 10 | 100 | 100
9 | CCc1ccc2c(c1)C(NCCN(CC)CC)c1ccccc1CO2 (stereo not drawn) [Compound 1, 2-ethyl-11-{2-(diethylamino)ethyl}amino-6,11-dihydrodibenz[b,e]oxepin] | 1 | > 100 | > 300 | 1 | 20 | 50
10 | CCN1CCCC1CNC1c2ccccc2COc2ccc(C)cc21 (stereo not drawn) [Compound 28, 2-methyl-11-{(1-ethyl-2-pyrrolidinyl)methyl}-amino-6,11-dihydrodibenz[b,e]oxepin] | 1 | 100 | 300 | 1 | 50 | 25
11 | CCC(C)c1ccc2c(c1)C(NC1CN3CCC1CC3)c1ccccc1CO2 (stereo not drawn) [Compound 51, 2-(1-methyl)propyl-11-(3-quinuclidinyl)amino-6,11-dihydrodibenz[b,e]oxepin] | 1 | 100 | > 300 | 0.3 | 50 | 50
12 | CN1CCN(C2c3ccccc3COc3ccc(Cl)cc32)CC1 (stereo not drawn) [Compound 70, 2-chloro-11-(4-methyl-1-piperazinyl)-6,11-dihydrodibenz[b,e]oxepin] | 1 | 100 | 200 | 0.3 | 50 | 10
13 | CC(C)(C)c1ccc2c(c1)C(NC1CN3CCC1CC3)c1ccccc1CO2 (stereo not drawn) [Compound 52, 2-(1,1-dimethyl)ethyl-11-(3-quinuclidinyl)amino-6,11-dihydrodibenz[b,e]oxepin] | 3 | 100 | > 300 | 0.3 | 1 | 50
14 | CCc1ccc2c(c1)C(NCCN1CCCCC1)c1ccccc1CO2 (stereo not drawn) [Compound 35, 2-ethyl-11-(2-piperidinoethyl)amino-6,11-dihydrodibenz[b,e]oxepin] | 3 | > 100 | 300 | 1 | 20 | 25
15 | CCN(CC)CCNC1c2ccccc2COc2ccc(F)cc21 (stereo not drawn) [Compound 9, 2-fluoro-11-{2-(diethylamino)ethyl}amino-6,11-dihydrodibenz[b,e]oxepin] | 3 | 100 | > 300 | 1 | 50 | 50
16 | Cc1ccc2c(c1)C(NC1CN3CCC1CC3)c1ccccc1CO2 (stereo not drawn) [Compound 20, 2-methyl-11-(3-quinuclidinyl)amino-6,11-dihydrodibenz[b,e]oxepin] | 1 | 50 | 300 | 0.1 | 100 | 50
17 | CCC(C)c1ccc2c(c1)C(NCCN(CC)CC)c1ccccc1CO2 (stereo not drawn) [Compound 11, 2-(1-methyl) propyl-11-{2-(diethylamino)ethyl}amino-6,11-dihydrodibenz[b,e]oxepin] | 0.03 | 100 | > 300 | 0.3 | 10 | 100
